Experimental data from patent publication US20250084080A1, “CRYSTALLINE AND SALT FORMS OF AN NLRP3 INHIBITOR” (BioAge Labs, Inc., priority 2023, published 2025).

Experiments:
Format in all cases: physicochemical
[1] = Solubility at 37° C. in buffers and biorelevant media, XRPD of residual solid; conditions: for solubility at 2 h / solubility at 24 h: thermodynamic from solid
Protocol: Solubility of BAL-0748 free form Pattern B was investigated in pH 1.2 HCl buffer, pH 4.5 50 mM acetate buffer, pH 6.8 50 mM phosphate buffer, water, pH 1.6 FaSSGF, pH 6.5 FaSSIF-v1, pH 5.0 FeSSIF-v1 and 2% HPMC+1% Pluronic F68 in pH 4.5 50 mM acetate buffer at 37° C. for 2 h and 24 h. Residual solids after the solubility test were analyzed by XRPD.
Solubility of the free form Pattern A, the HCl salt Pattern A, the phosphate salt Pattern A, and the sodium salt Pattern A was measured in pH 1.2 HCl buffer, pH 4.5 acetate buffer (50 mM), pH 6.8 phosphate buffer (50 mM), water, pH 1.6 FaSSGF, pH 6.5 FaSSIF-v1, pH 5.0 FeSSIF-v1, and 2% HPMC+1% Pluronic F68 in pH 4.5 acetate buffer (50 mM) at 37° C. for 2 hours and 24 hours.
10.4 mg of the free form Pattern A, 10.0 mg of the free form Pattern B, 10.8 mg of the HCl salt Pattern A, 12.2 mg of the phosphate salt Pattern A, or 10.5 mg of the sodium salt Pattern A was weighed into a 20 mL glass vial, respectively. 5 mL of solubility medium was added. The salt amount used was equivalent to 10 mg anhydrous free form. Obtained suspensions were stirred at 37° C. at 400 rpm and sampled at 2 hours and at 24 hours. The samples were centrifuged at 37° C. at 14,000 rpm for 5 min. Supernatants were analyzed by HPLC and PH meter for solubility and pH value, respectively. Residual solids (wet cakes) from the 24 hours samples were also characterized by XRPD to determine physical form.

[2] = Bulk stability (solid state, 1 week; HPLC, XRPD, IC, color); parameters: key to CL (color): A: no change of color; B: slight discoloration; C: medium discoloration; D: strong discoloration; conditions: for Bulk (HPLC) Purity / Bulk (XRPD) / CL (color): Solid state
Protocol: Bulk stability of free form Pattern B was evaluated at 25° C./92.5% RH in an open container, at 40° C./75% RH in an open container and at 60° C. in a tight container over 1 week.

[3] = Hygroscopicity by dynamic vapor sorption (DVS) at 25° C.; conditions: for Desorp. (%) / Sorp. (%): DVS 25° C.
Protocol: Dynamic vapor sorption (DVS) was performed on an Intrinsic, Advantage or Adventure with an oven temperature of 25° C. using water as a solvent. The sample mass was about 5-10 mg using the following method: • Cycle: 40-0-95-0-40% RH • Stage Step: 10% • Equilibrium: 0.002 dm/dt (%/min) • Minimum dm/dt stability duration: 60 min • Maximum dm/dt stage time: 360 min. Hygroscopicity of free form Pattern B was evaluated by dynamic vapor sorption (DVS) test at 25° C. […] It absorbed about 0.8% water at 80% RH at 25° C.

[4] = aqueous buffer, pH 4.5 acetate buffer (50 mM), 37° C.
[5] = aqueous buffer, pH 6.8 phosphate buffer (50 mM), 37° C.
[6] = aqueous with cosolvent or surfactant or cyclodextrin, 2% HPMC + 1% Pluronic F68 in pH 4.5 acetate buffer (50 mM), 37° C.
[7] = fassgf or other biorelevant, FaSSGF, pH 1.6, 37° C.
[8] = simulated gastric fluid, pH 1.2 HCl buffer, 37° C.
[9] = 25° C./92.5% RH open, 40° C./75% RH open, 60° C. tight container

CCOc1cc(C(=O)N(C)Cc2cnc(CO)c3cn[nH]c23)ccc1-c1cc(F)cc(F)c1.O=P(O)(O)O [Phosphate salt Pattern A, 2-ethoxy-3′,5′-difluoro-N-((4-(hydroxymethyl)-1H-pyrazolo[4,3-c]pyridin-7-yl)methyl)-N-methyl-[1,1′-biphenyl]-4-carboxamide phosphoric acid salt]
pH of supernatant at 24 h ([1]; 2% HPMC + 1% Pluronic F68 in pH 4.5 acetate buffer (50 mM), 37° C.): (4.5)
Solubility compared with the free form Pattern A ([1]; 2% HPMC+1% Pluronic F68 in acetate buffer (pH 4.5)): comparable solubility
pH of supernatant at 24 h ([1]; FaSSGF, pH 1.6, 37° C.): (1.6)
pH of supernatant at 24 h ([1]; FaSSIF-v1, pH 6.5, 37° C.): (6.2)
pH of supernatant at 24 h ([1]; FeSSIF-v1, pH 5.0, 37° C.): (4.9)
pH of supernatant at 24 h ([1]; Water, 37° C.): (2.6)
solubility at 2 h [1, 4]: 9.4 µg/mL
solubility at 24 h [1, 4]: 11.8 µg/mL
solubility at 2 h [1, 5]: 2.4 µg/mL
solubility at 24 h [1, 5]: 2.9 µg/mL
solubility at 2 h [1, 6]: 16.4 µg/mL
solubility at 24 h [1, 6]: 17.9 µg/mL
solubility at 2 h [1, 7]: 710 µg/mL
solubility at 24 h [1, 7]: 653 µg/mL
pH of supernatant at 24 h ([1]; pH 1.2 HCl buffer, 37° C.): (1.2)
pH of supernatant at 24 h ([1]; pH 4.5 acetate buffer (50 mM), 37° C.): (4.4)
pH of supernatant at 24 h ([1]; pH 6.8 phosphate buffer (50 mM), 37° C.): (6.7)
Solubility compared with the free form Pattern A ([1]; pure water): obviously higher solubility
solubility at 2 h [1, 8]: 402 µg/mL
solubility at 24 h [1, 8]: 390 µg/mL
solubility at 2 h ([1]; FaSSIF-v1, pH 6.5, 37° C.): 8.4 µg/mL
solubility at 24 h ([1]; FaSSIF-v1, pH 6.5, 37° C.): 13.7 µg/mL
solubility at 2 h ([1]; FeSSIF-v1, pH 5.0, 37° C.): 140 µg/mL
solubility at 24 h ([1]; FeSSIF-v1, pH 5.0, 37° C.): 159 µg/mL
solubility at 2 h ([1]; Water, 37° C.): 384 µg/mL
solubility at 24 h ([1]; Water, 37° C.): 442 µg/mL
Bulk stability, chemical and physical [2, 9]: chemically and physically stable
Degradation by HPLC [2, 9]: no obvious degradation
Form change by XRPD [2, 9]: no form change
Bulk (HPLC) Purity ([2]; 25° C./92.5% RH, open): 98.2%
Bulk (XRPD) ([2]; 25° C./92.5% RH, open): No form change
CL (color) ([2]; 25° C./92.5% RH, open): A
Bulk (HPLC) Purity ([2]; 40° C./75% RH, open): 98.2%
Bulk (XRPD) ([2]; 40° C./75% RH, open): No form change
CL (color) ([2]; 40° C./75% RH, open): A
Bulk (HPLC) Purity ([2]; 60° C., closed): 98.2%
Bulk (XRPD) ([2]; 60° C., closed): No form change
CL (color) ([2]; 60° C., closed): A
Desorp. (%) ([3]; 0% RH, 1st desorption): 0.03%
Sorp. (%) ([3]; 0% RH, 1st sorption): 0.03%
Desorp. (%) ([3]; 0% RH, 2nd desorption): 0.00%
Sorp. (%) ([3]; 0% RH, 2nd sorption): 0.00%
Desorp. (%) ([3]; 10% RH, 1st desorption): 0.12%
Sorp. (%) ([3]; 10% RH, 1st sorption): 0.11%
Desorp. (%) ([3]; 10% RH, 2nd desorption): 0.09%
Sorp. (%) ([3]; 10% RH, 2nd sorption): 0.09%
Desorp. (%) ([3]; 20% RH, 1st desorption): 0.16%
Sorp. (%) ([3]; 20% RH, 1st sorption): 0.15%
Desorp. (%) ([3]; 20% RH, 2nd desorption): 0.14%
Sorp. (%) ([3]; 20% RH, 2nd sorption): 0.13%
Desorp. (%) ([3]; 30% RH, 1st desorption): 0.20%
Sorp. (%) ([3]; 30% RH, 1st sorption): 0.18%
Desorp. (%) ([3]; 30% RH, 2nd desorption): 0.18%
Sorp. (%) ([3]; 30% RH, 2nd sorption): 0.17%
Desorp. (%) ([3]; 40% RH, 1st desorption): 0.24%
Sorp. (%) ([3]; 40% RH, 1st sorption): 0.23%
Desorp. (%) ([3]; 40% RH, 2nd desorption): 0.23%
Sorp. (%) ([3]; 40% RH, 2nd sorption): 0.21%
Sorp. (%) ([3]; 50% RH, 1st sorption): 0.27%
Desorp. (%) ([3]; 50% RH, 2nd desorption): 0.29%
Sorp. (%) ([3]; 60% RH, 1st sorption): 0.32%
Desorp. (%) ([3]; 60% RH, 2nd desorption): 0.35%
Sorp. (%) ([3]; 70% RH, 1st sorption): 0.37%
Desorp. (%) ([3]; 70% RH, 2nd desorption): 0.41%
Sorp. (%) ([3]; 80% RH, 1st sorption): 0.45%
Desorp. (%) ([3]; 80% RH, 2nd desorption): 0.48%
Sorp. (%) ([3]; 90% RH, 1st sorption): 0.61%
Desorp. (%) ([3]; 90% RH, 2nd desorption): 0.63%
Sorp. (%) ([3]; 95% RH, 1st sorption): 0.82%
Desorp. (%) ([3]; 95% RH, 2nd desorption): 0.82%
XRPD after DVS test ([3]; DVS at 25° C.): No form change
Water absorbed at 80% RH ([3]; DVS at 25° C., 80% RH): It absorbed 0.5%
